# In patent US20110183904A1, “METHODS AND COMPOSITIONS FOR ALTERING BEHAVIOR ASSOCIATED WITH AUTISM SPECTRUM DISORDER” (The Children's Mercy Hospital, priority 2008, published 2011):
# “Also recorded” adds a separate entry of the source.
# Key:
# male university students = settings: intra-nasally; cited from earlier work
# [1] = test system: Gαs in murine spleen cells; assay: Gαs expression in murine spleen cells exposed to OT (previous findings in this lab); type: cell-based; settings: both sexes
# adults with ASD = settings: cited from earlier work
# [2] = test system: Gαs and Gαq protein in PBMCs; assay: G-protein expression (Gαs and Gαq) in PBMCs exposed to oxytocin (immunoblot); type: cell-based, human
# Procedure: Membrane preparation for membrane-associated proteins. For protein studies, PBMC's were manipulated at 4° C., as previously described in Example 4. PBMC's were individually homogenized (1:30, wt/vol) in ice-cold 0.25 M sucrose and 50 mM Tris-HCL, (pH 7.6) in a Dounce homogenizer, centrifuged twice at 800×g for 5 min before centrifugation of the supernatants at 30,000×g for 60 min. The pellet was resuspended in assay buffer and used directly in the binding assay. Protein concentration was determined by BCA protein assay kit (Pierce, Rockford, Ill.) using bovine serum albumin (BSA) as a standard.
# Immunoblot analysis for membrane-associated proteins. Total membrane proteins were prepared as for receptor assays above. Samples were electrophoresed in 12% Tris-HCl resolving gels and transferred to 0.45 μm nitrocellulose membranes (Bio-Rad, Hercules, Calif.) by electroblotting. […] After three washes in TBST, membranes were incubated for 1 h in TBST and 1% non fat dry milk with horseradish peroxidase conjugated 2° antibodies (Jackson Immunoresearch, West Grove, Pa.). Bands were visualized by exposure of the membranes to autoradiographic film (MidSci, St. Louis, Mo.). The membranes were then stripped with Restore™ Western Blot Stripping Buffer (Pierce, Rockford Ill.) for 30 min at 37° C. and reprobed for actin protein as an internal control. The bands were quantified using a densitometer (GE Healthcare, Piscataway, N.J.).
# Specific G protein antibodies. Specific Gαs and Gαq/11 antibodies made in rabbit without cross reactivity to other G proteins were used at a 1:500 dilution and originated from Santa Cruz Biotechnology (Santa Cruz, Calif.).
# [3] = test system: Gαs mRNA and Gαq mRNA in PBMCs; assay: G-protein mRNA (Gαs and Gαq) in PBMCs exposed to oxytocin; type: cell-based, human
# Procedure: (§1) Both Gαs and Gαq mRNA were measured after PBMCs were incubated with vehicle (untreated condition) and after co-culture with hormone. For some subjects, the PBMC quantity yielded insufficient mRNA for PCR analysis. Gαs PCR was completed on 10 ASD girls, 9 control girls, 10 ASD boys, and 9 control boys. Gαq PCR was completed on 10 ASD girls, 8 control girls, 10 ASD boys, and 9 control boys.
# (§2) Samples were taken from the patients, as described in Example 1, and mRNA was isolated from cells exposed to oxytocin and analyzed for amount of mRNA expressing Gαs and Gαq.
# PBMC isolation, hormone treatment and cell culture. PBMCs were isolated from heparinized blood using Histopaque 1077 (Sigma-Aldrich, St. Louis, Mo.). Briefly, 5 ml of blood was diluted 1:1 in PBS and carefully layered onto 3 ml of Histopaque 1077 in a 50 ml conical centrifuge tube. Tubes were centrifuged at 400 g for 30 min at RT. The buffy coat was removed from the tube and washed three times in complete RPMI without phenol red. Cell counts and viability were determined using Trypan blue. Cell viability was >95%. Resultant PBMC's were suspended in complete RPMI with 10% charcoal stripped, dilapidated fetal calf serum (FCS) (Invitrogen, Carlsbad, Calif.) and added in 1 ml aliquots to 12 well plate with vehicle and oxytocin (10 ^−7M, 10 ^−8M, and 10^−9M) in RPMI+10% charcoal stripped, dilapidated FCS. Cells were incubated overnight (18-24 hr) before wells were harvested and rinsed. Cell suspensions were centrifuged at 500 g for 10 min at RT, and supernatant was aspirated. Buffer RLT Plus from the RNeasy Mini Plus Kit (QIAgen, Valencia, Calif.) was added to the cell pellets before vortexing to lyse cells. Samples were stored at −80° C. before RNA purification and isolation.
# RNA isolation and quantitation. Samples were thawed, vortexed, and placed in QIAshredder columns. Columns were centrifuged for 2 min at 15000 g. The homogenized lysate was transferred to a gDNA Eliminator spin column and centrifuged for 30 sec at 9000 g. Equal volumes of 70% ethanol were added to the eluent. The mixture was transferred to RNeasy spin columns and centrifuged for 15 sec at 9000 g. Columns were washed with Buffer RW1 and the Buffer RPE, centrifuging for 15 sec at 9000 g, each time discarding the eluent. Buffer RPE was again added and columns centrifuged for 2 min at 9000 g to dry the column. Columns were then centrifuged for 1 min at 15000 g. RNA was eluted with the addition of Nuclease-free water and spun for 1 min at 9000 g. RNA was examined by spectrophotometry and quantitated using the Ribogreen assay (Invitrogen, Carlsbad, Calif.). Samples were diluted 1:200. Standards of 0, 20, 100, 500, and 1000 ng/ml were made from E. coli ribosomal RNA in TE buffer. Ribogreen reagent (1:200) was added to samples and standards, and samples were read on a Bio-Tek FLx800 fluorescent plate reader. RNA was diluted in nuclease-free water to a final concentration of 150 ng/ml cDNA.
# cDNA construction and one-step real-time RT-PCR. Reverse transcription was performed using the SuperScript II Reverse Transcription Kit (Invitrogen, Carlsbad, Calif.). First, any residual DNA was digested away with DNase I for 15 min, with DNase activity subsequently quenched with 25 mM EDTA at 65° C. for 15 min. 10 mM dNTP and 0.5 ug/ml oligo (dT) were added to DNase-treated samples at 65° C. for 5 min. […]
# Gαq mRNA in PBMCs = Gαq mRNA in PBMCs co-cultured with OT; type: cell-based, human
# Procedure: as §1, §2
# (§3) PBMC isolation, hormone treatment and cell culture. PBMCs were isolated from heparinized blood using Histopaque 1077 (Sigma-Aldrich, St. Louis, Mo.). Briefly, 5 ml of blood was diluted 1:1 in PBS and carefully layered onto 3 ml of Histopaque 1077 in a 50 ml conical centrifuge tube. Tubes were centrifuged at 400 g for 30 min at RT. The buffy coat was removed from the tube and washed three times in complete RPMI without phenol red. Cell counts and viability were determined using Trypan blue. Cell viability was >95%. […]
# (§4) RNA isolation and quantitation. […] RNA was examined by spectrophotometry and quantitated using the Ribogreen assay (Invitrogen, Carlsbad, Calif.). […] Ribogreen reagent (1:200) was added to samples and standards, and samples were read on a Bio-Tek FLx800 fluorescent plate reader. […]
# Gαs mRNA in PBMCs = Gαs mRNA in PBMCs co-cultured with OT; type: cell-based, human
# Procedure: as §1, §2, §3, §4
# [4] = children with ASD versus controls
smiles,measurement,setting,value
"CC[C@H](C)[C@@H]1NC(=O)[C@H](Cc2ccc(O)cc2)NC(=O)[C@@H](N)CSSC[C@@H](C(=O)N2CCC[C@H]2C(=O)N[C@@H](CC(C)C)C(=O)NCC(N)=O)NC(=O)[C@H](CC(N)=O)NC(=O)[C@H](CCC(N)=O)NC1=O [OT, Oxytocin]",trust and prosocial behavior,male university students,might increase trust and prosocial behavior
same,Gαs expression with exposure to OT,[1],"c. Previous findings in this lab had found sex differences in Gαs in murine spleen cells as well as induction of Gαs expression in both sexes with exposure to OT,"
same,affective speech comprehension,adults with ASD; OT infusion,improved
same,severity and number of different types of repetitive behaviors,adults with ASD; intravenous OT infusion,decreased
same,protein expression after exposure to oxytocin,[2]; children with autism,not seen
same,protein expression after exposure to oxytocin,[2]; females with autism,upward trend
same,protein expression after exposure to oxytocin,[2]; males with autism,not observed
same,protein expression after exposure to oxytocin,[2]; non-autistic patients,went up
same,mRNA pattern after exposure to oxytocin,"[3]; autistic males, compared with control females before exposure",more feminine pattern
same,mRNA levels after exposure to oxytocin,[3]; children with autism,not seen
same,mRNA levels after exposure to oxytocin,[3]; females with autism,upward trend
same,mRNA levels after exposure to oxytocin,[3]; males with autism,not observed
same,mRNA levels after exposure to oxytocin,[3]; non-autistic patients,went up
same,difference in Gαq mRNA expression between ASD and control PBMCs upon exposure to OT,Gαq mRNA in PBMCs; [4],no longer significant
same,sex differences in Gαq mRNA expression with OT,Gαq mRNA in PBMCs; girls versus boys,not augmented
same,difference in Gαs mRNA expression between ASD and control PBMCs upon exposure to OT,Gαs mRNA in PBMCs; [4],no longer observed; also recorded: did not have the significantly increased Gαs mRNA
same,sex differences in Gαs expression with OT exposure,"Gαs mRNA in PBMCs; girls versus boys, any group",not augmented
